Measured values reported in patent publication US20260176320A1, “MODULATORS OF G-PROTEIN COUPLED RECEPTORS” (priority 2018, published 2026).
Read-outs that look alike come from different tables or passages of the source.

Experiments:
Assay type in all cases: cell-based
[1] = target: T1, GLP-1R (Homo sapiens, UniProt P43220); test: PathHunter β-arrestin assay
Summary of the method: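 Cells seeded overnight, then medium replaced with medium containing 0.2% BSA; agonists added as 22-point 2-fold DMSO dilution series in duplicate and incubated 90 min at 37 °C, 5% CO2. After addition of detection solution, plates sat 3 h at room temperature in the dark; luminescence read.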

[2] = target: T2, GIP-R (Homo sapiens, UniProt P48546); test: HitHunter cAMP assay (GIP-R); conditions: for Emax: read-out: (Emax) GIP-R
T2 sequence (P48546 22-466): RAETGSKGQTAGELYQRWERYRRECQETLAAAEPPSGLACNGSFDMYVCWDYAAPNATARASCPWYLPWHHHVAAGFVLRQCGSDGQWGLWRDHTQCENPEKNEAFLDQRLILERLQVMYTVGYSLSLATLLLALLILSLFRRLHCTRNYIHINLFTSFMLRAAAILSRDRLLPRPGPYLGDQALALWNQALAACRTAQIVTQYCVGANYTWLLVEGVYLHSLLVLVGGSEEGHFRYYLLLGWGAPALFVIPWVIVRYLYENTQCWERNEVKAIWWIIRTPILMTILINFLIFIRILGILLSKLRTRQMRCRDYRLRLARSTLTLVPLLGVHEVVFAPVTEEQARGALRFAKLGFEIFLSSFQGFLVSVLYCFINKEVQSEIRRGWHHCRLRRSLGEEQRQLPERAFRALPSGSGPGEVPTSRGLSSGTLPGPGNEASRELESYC
Summary of the method: (§1)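 Suspension cells expressing each receptor (10,000 per well) in HBSS with 10 mM HEPES, 625 μM IBMX and 0.2% BSA were treated with a 22-point 2-fold agonist series in duplicate for 30 minutes at room temperature. cAMP was detected by antibody immunocompetition with luminescence read after overnight incubation.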

[3] = target: T1, GLP-1R; test: HitHunter cAMP assay (GLP-1R); conditions: for Emax: read-out: (Emax) GLP-1R
Summary of the method: as §1

T1 sequence (P43220 24-463): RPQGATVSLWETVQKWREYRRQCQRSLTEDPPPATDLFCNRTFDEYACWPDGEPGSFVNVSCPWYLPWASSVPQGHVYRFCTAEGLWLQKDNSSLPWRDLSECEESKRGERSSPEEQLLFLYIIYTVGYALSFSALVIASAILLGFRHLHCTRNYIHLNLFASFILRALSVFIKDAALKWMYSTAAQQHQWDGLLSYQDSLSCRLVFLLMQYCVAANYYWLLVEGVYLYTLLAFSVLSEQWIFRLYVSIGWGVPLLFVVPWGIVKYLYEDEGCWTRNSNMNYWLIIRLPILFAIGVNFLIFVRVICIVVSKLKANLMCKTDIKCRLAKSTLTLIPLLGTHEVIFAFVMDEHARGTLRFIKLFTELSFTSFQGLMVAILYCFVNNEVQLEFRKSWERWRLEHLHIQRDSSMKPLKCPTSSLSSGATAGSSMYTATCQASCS

CC[C@H](C)[C@H](NC(=O)[C@H](CO)NC(=O)[C@H](Cc1ccc(O)cc1)NC(=O)[C@H](CC(=O)O)NC(=O)[C@H](CO)NC(=O)[C@@H](NC(=O)[C@H](Cc1ccccc1)NC(=O)[C@@H](NC(=O)CNC(=O)[C@H](CCC(=O)O)NC(=O)C1(C(=O)NCCN2C(=O)CSC2=O)CCC1)[C@@H](C)O)[C@@H](C)O)C(=O)N[C@@H](Cc1ccc(O)cc1)C(=O)N[C@@H](CC(C)C)C(=O)N[C@@H](CC(=O)O)C(=O)N[C@@H](CCCCN)C(=O)N[C@@H](CCC(N)=O)C(=O)N[C@@H](C)C(=O)N[C@@H](C)C(=O)NC(C)(C)C(=O)N[C@@H](CCC(=O)O)C(=O)N[C@@H](Cc1ccccc1)C(=O)N[C@H](C(=O)N[C@@H](CC(N)=O)C(=O)N[C@@H](Cc1c[nH]c2ccccc12)C(=O)N[C@@H](CC(C)C)C(=O)N[C@@H](CC(C)C)C(=O)N[C@@H](C)C(=O)NCC(=O)NCC(=O)N1CCC[C@H]1C(=O)N[C@@H](CO)C(=O)N[C@@H](CO)C(=O)NCC(=O)N[C@@H](C)C(=O)N1CCC[C@H]1C(=O)N1CCC[C@H]1C(=O)N1CCC[C@H]1C(=O)N[C@@H](CO)C(=O)N[C@@H](CCCCN)C(N)=O)C(C)C [Compound 134]
EC50 [1]: 10 to 1000 nM | EC50 ([2]; EC50 GIP-R/nM, Table 3, cAMP): 10 to 100 nM | EC50 ([2]; EC50 GIP-R/nM, Table 3A, cAMP): 10 to 100 nM | Emax [2]: 30% | EC50 [3]: < 0.1 nM | (Emax) GLP-1R ([3]; Table 3A, cAMP): 103-108% | Emax [3]: 103 to 108% | EC50 ([3]; read-out: EC50 GLP-1R/nM, Table 3A, cAMP): < 0.1 nM

CC[C@H](C)[C@H](NC(=O)[C@H](CO)NC(=O)[C@H](Cc1ccc(O)cc1)NC(=O)[C@H](CC(=O)O)NC(=O)[C@H](CO)NC(=O)[C@@H](NC(=O)[C@H](Cc1ccccc1)NC(=O)[C@@H](NC(=O)CNC(=O)[C@H](CCC(=O)O)NC(=O)C1(C(=O)NCCN2C(=O)CSC2=O)CC1)[C@@H](C)O)[C@@H](C)O)C(=O)N[C@@H](Cc1ccc(O)cc1)C(=O)N[C@@H](CC(C)C)C(=O)N[C@@H](CC(=O)O)C(=O)N[C@@H](CCCCN)C(=O)N[C@@H](CCC(N)=O)C(=O)N[C@@H](C)C(=O)N[C@@H](C)C(=O)NC(C)(C)C(=O)N[C@@H](CCC(=O)O)C(=O)N[C@@H](Cc1ccccc1)C(=O)N[C@H](C(=O)N[C@@H](CC(N)=O)C(=O)N[C@@H](Cc1c[nH]c2ccccc12)C(=O)N[C@@H](CC(C)C)C(=O)N[C@@H](CC(C)C)C(=O)N[C@@H](C)C(=O)NCC(=O)NCC(=O)N1CCC[C@H]1C(=O)N[C@@H](CO)C(=O)N[C@@H](CO)C(=O)NCC(=O)N[C@@H](C)C(=O)N1CCC[C@H]1C(=O)N1CCC[C@H]1C(=O)N1CCC[C@H]1C(=O)N[C@@H](CO)C(=O)N[C@@H](CCCCN)C(N)=O)C(C)C [Compound 135]
EC50 ([1]; PathHunter β-arrestin assay, read-out: β-arrestin activity EC50): > 1000 nM | Emax ([2]; Table 3, cAMP): 15 to 22% | EC50 ([2]; Table 3, cAMP, read-out: EC50 GIP-R/nM): 10 to 100 nM | Emax ([2]; Table 3A, cAMP): 15 to 22% | EC50 ([2]; Table 3A, cAMP, read-out: EC50 GIP-R/nM): 10 to 1000 nM | Emax ([3]; Table 3, cAMP): 106 to 111% | EC50 ([3]; Table 3, cAMP, read-out: EC50 GLP-1R/nM): < 1 nM | Emax ([3]; Table 3A, cAMP): 106 to 111% | EC50 ([3]; Table 3A, cAMP, read-out: EC50 GLP-1R/nM): < 1 nM

CC[C@H](C)[C@H](NC(=O)[C@H](CO)NC(=O)[C@H](Cc1ccc(O)cc1)NC(=O)[C@H](CC(=O)O)NC(=O)[C@H](CO)NC(=O)[C@@H](NC(=O)[C@H](Cc1ccccc1)NC(=O)[C@@H](NC(=O)CNC(=O)[C@H](CCC(=O)O)NC(=O)CSCC(=O)NCCn1ncc2ccccc2c1=O)[C@@H](C)O)[C@@H](C)O)C(=O)N[C@@H](Cc1ccc(O)cc1)C(=O)N[C@@H](CC(C)C)C(=O)N[C@@H](CC(=O)O)C(=O)N[C@@H](CCCCN)C(=O)N[C@@H](CCC(N)=O)C(=O)N[C@@H](C)C(=O)N[C@@H](C)C(=O)NC(C)(C)C(=O)N[C@@H](CCC(=O)O)C(=O)N[C@@H](Cc1ccccc1)C(=O)N[C@H](C(=O)N[C@@H](CC(N)=O)C(=O)N[C@@H](Cc1c[nH]c2ccccc12)C(=O)N[C@@H](CC(C)C)C(=O)N[C@@H](CC(C)C)C(=O)N[C@@H](C)C(=O)NCC(=O)NCC(=O)N1CCC[C@H]1C(=O)N[C@@H](CO)C(=O)N[C@@H](CO)C(=O)NCC(=O)N[C@@H](C)C(=O)N1CCC[C@H]1C(=O)N1CCC[C@H]1C(=O)N1CCC[C@H]1C(=O)N[C@@H](CO)C(=O)N[C@@H](CCCCN)C(N)=O)C(C)C [Compound 136]
EC50 [1]: > 1000 nM | EC50 ([2]; EC50 GIP-R/nM, Table 3, cAMP): 0.1 to 1 nM | EC50 ([2]; EC50 GIP-R/nM, Table 3A, cAMP): 0.1 to 1 nM | Emax ([2]; Table 3, cAMP): 105% | Emax ([2]; Table 3A, cAMP): 105% | EC50 ([3]; EC50 GLP-1R/nM, Table 3, cAMP): 10 to 100 nM | EC50 ([3]; EC50 GLP-1R/nM, Table 3A, cAMP): 10 to 100 nM | Emax ([3]; Table 3, cAMP): 91 to 94% | Emax ([3]; Table 3A, cAMP): 91 to 94%
